System: Pseudomonas aeruginosa ATCC 15442
Assay: Suspension test: log reduction of Pseudomonas aeruginosa after a specified contact time
Assay type: cell-based
Description: The target organism Pseudomonas aeruginosa ATCC 15442 was taken from freezer stocks and grown for 24 hours on tryptone soy agar (TSA) at 37° C. A second subculture was produced from the first and grown with the same conditions. A test suspension was then created by adding loopfuls of organism to tryptone buffered saline and adjusting the cell concentration to 1×10^8 and 5×10^8 CFU/ml using an internally established calibration curve spectrophotometer at a wavelength of 600 nm. To establish the precise CFU/ml a 1 ml aliquot was then taken from the test suspension and serially diluted down to 10^−6 and 10^−7, 1 ml of each dilution was then plated in duplicate using the pour plate method on to TSA. The plates were then incubated for 24 hours at 37° C. and enumerated.
For each Active Ingredient tested a series of 3 samples were prepared in sterile distilled water;
Test sample 1—Active Ingredient alone (to measure basic efficacy of the Active Ingredient)
Test sample 2—Active Ingredient in combination with polyglyceryl-10 caprylate/caprate (to measure the efficacy of the combination of active ingredient and polyglycerol ester)
Control—A control sample of polyglyceryl-10 caprylate/caprate was prepared in deionized water to measure the efficacy of polyglycerol ester alone.
Each test sample was prepared at a concentration 10% higher than that of the target concentration to account for the dilution effect from the addition of the test organism suspension during the test procedure.
A test mixture was prepared by adding a 0.1 ml aliquot of test organism suspension to a tube followed by 0.9 ml of test sample (prepared as above). The combination was then mixed and a timer started immediately.
Upon achieving the specified contact time the test mixture was deactivated by adding a 0.1 ml aliquot of the test mixture to 0.9 ml of neutralizing broth and the whole solution mixed. The solution was left for 5 minutes to ensure the action of the active ingredient was effectively neutralized.
To quantify the surviving number of organisms in the neutralized test mixture, 4×0.025 ml aliquots were taken and spot plated onto the surface of dried TSA. The plates were then incubated for 24 hours at 37° C.
For spot plating, colonies from the incubated plates were enumerated using the lower count limit of <1 and the upper count limit of >150. […] For the upper limit, if 156 colonies were counted on a plate, >150 would be recorded and 150 would be used for the calculation.
[formula] • N0 is the number of cells per ml in test mixture at the beginning of contact time. It is one-tenth of the weighted mean of N due to the tenfold dilution by the addition of the test product.
Enumeration and Calculation of T (Test Mixture) • First, the mean average of cfu per 0.025 ml spots was established using the below calculation;
Log Reduction Calculations (N0− T) • Before calculating the log reduction both N0 and T were converted into a logarithm base 10 value. For example;
To calculate the final log reduction the following calculation was used;
The test procedure outlined above was used to test for synergy between polyglyceryl-10 caprylate/caprate (PG10CC) and the various active ingredients listed in Table 1. Varying concentrations were prepared and were tested at the times listed in Table 1 for the presence of Pseudomonas aeruginosa.

O=c1[nH]sc2ccccc12
Log Reduction (Benzisothiazoline 100 ppm, contact time 48 hours): 3.84

O=C(O)c1ccccc1 [Benzoic acid]
Log Reduction (Benzoic acid 2000 ppm, contact time 2 hours): <2.85

O=C(O)CO [Glycolic acid]
Log Reduction (Glycolic acid 1000 ppm, contact time 30 minutes): 2.85

CC(O)C(=O)O (stereo not drawn) [Lactic acid]
Log Reduction (Lactic acid 2000 ppm, contact time 3 hours): 4.03

[H]/N=C(\N/C(=N/[H])NCCCCCCNC(=N)NC(=N)Nc1ccc(Cl)cc1)Nc1ccc(Cl)cc1 [chlorohexidine]
Log Reduction (chlorohexidine 64 ppm, contact time 5 minutes): 3.44

Zinc pyrithione
Log Reduction (Zinc pyrithione 400 ppm, contact time 7 days): 2.88
